Legend:
[1] = system: velvetleaf; experiment: Test Example 5: herbicidal effect by foliage application, plastic box (Table 20, symbol M); type: in vivo, velvetleaf (Abutilon theophrasti); conditions: foliage application, 320 g/ha
Method in brief: (§1)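 Plants sown in sterilized diluvial soil and grown 14 days in a greenhouse at 25° C to 30° C, then sprayed on the foliage with the compound's emulsion diluted in water to a predetermined herbicide amount. Injury to weeds and crops scored three weeks after application on a visual rating scale.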

[2] = system: rice flat sedge; experiment: Test Example 3: herbicidal effect by foliage application, Wagner pot (Table 18, symbol E); type: in vivo, rice flat sedge (Cyperus iria); conditions: 320 g/ha
Method in brief: (§2)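 Plants were sown in alluvial soil held under 0.1–0.5 cm standing water and grown 14 days in a greenhouse at 25–30 °C. An emulsifiable formulation, water-diluted to the set dose, was then sprayed onto the foliage, and effects were scored three weeks later using previously defined criteria.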

[3] = system: persian speedwell; experiment: Test Example 4: herbicidal effect by soil treatment (Table 19, symbol R); type: in vivo, Persian speedwell (Veronica persica)
Method in brief: (§3)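 Seeds were sown in sterilized diluvial soil and covered with about 1.5 cm of soil. An emulsion formulation diluted with water to a predetermined herbicide amount was sprayed evenly onto the soil surface. Plants grew in a greenhouse at 25° C. to 30° C., and the effect was scored three weeks after application using criteria from an earlier test.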

[4] = system: barnyard grass; experiment: Test Example 5: herbicidal effect by foliage application, plastic box (Table 20, symbol H); type: in vivo, barnyard grass (Echinochloa crus-galli); conditions: foliage application, 320 g/ha
Method in brief: as §1

[5] = system: redroot pigweed; experiment: Test Example 4: herbicidal effect by soil treatment (Table 19, symbol N); type: in vivo, redroot pigweed (Amaranthus retroflexus)
Method in brief: as §3

[6] = system: Italian ryegrass; experiment: Test Example 5: herbicidal effect by foliage application, plastic box (Table 20, symbol K); type: in vivo, Italian ryegrass (Lolium multiflorum); conditions: foliage application, 320 g/ha
Method in brief: as §1

[7] = system: persian speedwell; experiment: Test Example 5: herbicidal effect by foliage application, plastic box (Table 20, symbol R); type: in vivo, Persian speedwell (Veronica persica); conditions: foliage application, 320 g/ha
Method in brief: as §1

[8] = system: southern crabgrass; experiment: Test Example 5: herbicidal effect by foliage application, plastic box (Table 20, symbol F); type: in vivo, southern crabgrass (Digitaria ciliaris); conditions: foliage application, 320 g/ha
Method in brief: as §1

[9] = system: lambsquarters; experiment: Test Example 4: herbicidal effect by soil treatment (Table 19, symbol O); type: in vivo, lambsquarters (Chenopodium album)
Method in brief: as §3

[10] = system: chickweed; experiment: Test Example 4: herbicidal effect by soil treatment (Table 19, symbol P); type: in vivo, common chickweed (Stellaria media)
Method in brief: as §3

[11] = system: blackgrass; experiment: Test Example 4: herbicidal effect by soil treatment (Table 19, symbol J); type: in vivo, blackgrass (Alopecurus myosuroides)
Method in brief: as §3

[12] = system: Italian ryegrass; experiment: Test Example 4: herbicidal effect by soil treatment (Table 19, symbol K); type: in vivo, Italian ryegrass (Lolium multiflorum)
Method in brief: as §3

[13] = system: windgrass; experiment: Test Example 4: herbicidal effect by soil treatment (Table 19, symbol L); type: in vivo, windgrass (Apera spica-venti)
Method in brief: as §3

[14] = system: barnyard grass; experiment: Test Example 3: herbicidal effect by foliage application, Wagner pot (Table 18, symbol H); type: in vivo, barnyard grass (Echinochloa crus-galli); conditions: 320 g/ha
Method in brief: as §2

[15] = system: southern crabgrass; experiment: Test Example 4: herbicidal effect by soil treatment (Table 19, symbol F); type: in vivo, southern crabgrass (Digitaria ciliaris)
Method in brief: as §3

[16] = system: lambsquarters; experiment: Test Example 5: herbicidal effect by foliage application, plastic box (Table 20, symbol O); type: in vivo, lambsquarters (Chenopodium album); conditions: foliage application, 320 g/ha
Method in brief: as §1

[17] = system: blackgrass; experiment: Test Example 5: herbicidal effect by foliage application, plastic box (Table 20, symbol J); type: in vivo, blackgrass (Alopecurus myosuroides); conditions: foliage application, 320 g/ha
Method in brief: as §1

[18] = system: windgrass; experiment: Test Example 5: herbicidal effect by foliage application, plastic box (Table 20, symbol L); type: in vivo, windgrass (Apera spica-venti); conditions: foliage application, 320 g/ha
Method in brief: as §1

[19] = system: wild oat; experiment: Test Example 4: herbicidal effect by soil treatment (Table 19, symbol I); type: in vivo, wild oat (Avena fatua)
Method in brief: as §3

[20] = system: velvetleaf; experiment: Test Example 4: herbicidal effect by soil treatment (Table 19, symbol M); type: in vivo, velvetleaf (Abutilon theophrasti)
Method in brief: as §3

[21] = system: Chinese sprangletop; experiment: Test Example 3: herbicidal effect by foliage application, Wagner pot (Table 18, symbol D); type: in vivo, chinese sprangletop (Leptochloa chinensis); conditions: 320 g/ha
Method in brief: as §2

[22] = system: barnyard grass; experiment: Test Example 4: herbicidal effect by soil treatment (Table 19, symbol H); type: in vivo, barnyard grass (Echinochloa crus-galli)
Method in brief: as §3

[23] = system: green foxtail; experiment: Test Example 5: herbicidal effect by foliage application, plastic box (Table 20, symbol G); type: in vivo, green foxtail (Setaria viridis); conditions: foliage application, 320 g/ha
Method in brief: as §1

[24] = system: wild oat; experiment: Test Example 5: herbicidal effect by foliage application, plastic box (Table 20, symbol I); type: in vivo, wild oat (Avena fatua); conditions: foliage application, 320 g/ha
Method in brief: as §1

[25] = system: green foxtail; experiment: Test Example 4: herbicidal effect by soil treatment (Table 19, symbol G); type: in vivo, green foxtail (Setaria viridis)
Method in brief: as §3

[26] = amount of applied herbicide 320 g/ha

With `Cc1nn(C)c(=O)c(-c2c(-c3ccc(F)cc3)sc3ccc(F)cc23)c1OS(=O)(=O)N(C)C` [2-009] the “effect on velvetleaf (M)” value ([1]; 3 weeks after application) was 4 (Herbicidal rate of 70% or more and less than 90%), the “herbicidal effect on E (rice flat sedge), rating 0-5” value [2] was 4 (Herbicidal rate of 70% or more and less than 90%) and the “herbicidal effect rating, R: persian speedwell” value ([3]; 320 g/ha) was 3 (Herbicidal rate of 40% or more and less than 70%). For the same compound, the “effect on barnyard grass (H)” value ([4]; 3 weeks after application) was 4 (Herbicidal rate of 70% or more and less than 90%), the “herbicidal effect rating, N: redroot pigweed” value ([5]; 320 g/ha) was 5 (Herbicidal rate of 90% or more (almost completely withered)) and the “effect on Italian ryegrass (K)” value ([6]; 3 weeks after application) was 4 (Herbicidal rate of 70% or more and less than 90%). The “effect on persian speedwell (R)” value ([7]; 3 weeks after application) was 5 (Herbicidal rate of 90% or more (almost completely withered)), the “effect on southern crabgrass (F)” value ([8]; 3 weeks after application) was 5 (Herbicidal rate of 90% or more (almost completely withered)) and the “herbicidal effect rating, O: lambsquarters” value ([9]; 320 g/ha) was 3 (Herbicidal rate of 40% or more and less than 70%). For the same compound, the “herbicidal effect rating, P: chickweed” value ([10]; 320 g/ha) was 4 (Herbicidal rate of 70% or more and less than 90%), the “herbicidal effect rating, J: blackgrass” value ([11]; 320 g/ha) was 0 (Herbicidal rate of 5% or less (almost no effect)) and the “herbicidal effect rating, K: Italian ryegrass” value ([12]; 320 g/ha) was 4 (Herbicidal rate of 70% or more and less than 90%). The “herbicidal effect rating, L: windgrass” value ([13]; 320 g/ha) was 0 (Herbicidal rate of 5% or less (almost no effect)), the “herbicidal effect on H (barnyard grass), rating 0-5” value [14] was 5 (Herbicidal rate of 90% or more (almost completely withered)) and the “herbicidal effect rating, F: southern crabgrass” value ([15]; 320 g/ha) was 1 (Herbicidal rate of 5% or more and less than 20%). The “effect on lambsquarters (O)” value ([16]; 3 weeks after application) was 3 (Herbicidal rate of 40% or more and less than 70%), the “effect on blackgrass (J)” value ([17]; 3 weeks after application) was 0 (Herbicidal rate of 5% or less (almost no effect)) and the “effect on windgrass (L)” value ([18]; 3 weeks after application) was 0 (Herbicidal rate of 5% or less (almost no effect)). The “herbicidal effect rating, I: wild oat” value ([19]; 320 g/ha) was 0 (Herbicidal rate of 5% or less (almost no effect)), the “herbicidal effect rating, M: velvetleaf” value ([20]; 320 g/ha) was 2 (Herbicidal rate of 20% or more and less than 40%) and the “herbicidal effect on D (Chinese sprangletop), rating 0-5” value [21] was 3 (Herbicidal rate of 40% or more and less than 70%). The “herbicidal effect rating, H: barnyard grass” value ([22]; 320 g/ha) was 0 (Herbicidal rate of 5% or less (almost no effect)), the “effect on green foxtail (G)” value ([23]; 3 weeks after application) was 5 (Herbicidal rate of 90% or more (almost completely withered)) and the “effect on wild oat (I)” value ([24]; 3 weeks after application) was 0 (Herbicidal rate of 5% or less (almost no effect)). The “herbicidal effect rating, G: green foxtail” value ([25]; 320 g/ha) was 3 (Herbicidal rate of 40% or more and less than 70%).

`CCCC(=O)Oc1c(C)nn(C)c(=O)c1-c1c(-c2ccc(F)cc2OCC)sc2cc(Cl)c(Cl)cc12` [5-054] was tested, and the “herbicidal effect on velvetleaf (M)” value ([1]; three weeks after application) was 4 (Herbicidal rate of 70% or more and less than 90%), the “herbicidal effect on rice flat sedge (E)” value [2] was 5 (Herbicidal rate of 90% or more (almost completely withered)) and the “R: persian speedwell, herbicidal effect grade” value [3, 26] was 0 (Herbicidal rate of 5% or less (almost no effect)). The “herbicidal effect on barnyard grass (H)” value ([4]; three weeks after application) was 4 (Herbicidal rate of 70% or more and less than 90%), the “N: redroot pigweed, herbicidal effect grade” value [5, 26] was 0 (Herbicidal rate of 5% or less (almost no effect)) and the “herbicidal effect on Italian ryegrass (K)” value ([6]; three weeks after application) was 0 (Herbicidal rate of 5% or less (almost no effect)). For the same compound, the “herbicidal effect on persian speedwell (R)” value ([7]; three weeks after application) was 4 (Herbicidal rate of 70% or more and less than 90%), the “herbicidal effect on southern crabgrass (F)” value ([8]; three weeks after application) was 2 (Herbicidal rate of 20% or more and less than 40%) and the “O: lambsquarters, herbicidal effect grade” value [9, 26] was 0 (Herbicidal rate of 5% or less (almost no effect)). The “P: chickweed, herbicidal effect grade” value [10, 26] was 2 (Herbicidal rate of 20% or more and less than 40%), the “J: blackgrass, herbicidal effect grade” value [11, 26] was 0 (Herbicidal rate of 5% or less (almost no effect)) and the “K: Italian ryegrass, herbicidal effect grade” value [12, 26] was 0 (Herbicidal rate of 5% or less (almost no effect)). The “L: windgrass, herbicidal effect grade” value [13, 26] was 0 (Herbicidal rate of 5% or less (almost no effect)), the “herbicidal effect on barnyard grass (H)” value [14] was 4 (Herbicidal rate of 70% or more and less than 90%) and the “F: southern crabgrass, herbicidal effect grade” value [15, 26] was 0 (Herbicidal rate of 5% or less (almost no effect)). The “herbicidal effect on lambsquarters (O)” value ([16]; three weeks after application) was 3 (Herbicidal rate of 40% or more and less than 70%), the “herbicidal effect on blackgrass (J)” value ([17]; three weeks after application) was 0 (Herbicidal rate of 5% or less (almost no effect)) and the “herbicidal effect on windgrass (L)” value ([18]; three weeks after application) was 1 (Herbicidal rate of 5% or more and less than 20%). The “I: wild oat, herbicidal effect grade” value [19, 26] was 0 (Herbicidal rate of 5% or less (almost no effect)), the “M: velvetleaf, herbicidal effect grade” value [20, 26] was 0 (Herbicidal rate of 5% or less (almost no effect)) and the “herbicidal effect on Chinese sprangletop (D)” value [21] was 2 (Herbicidal rate of 20% or more and less than 40%). The “H: barnyard grass, herbicidal effect grade” value [22, 26] was 0 (Herbicidal rate of 5% or less (almost no effect)), the “herbicidal effect on green foxtail (G)” value ([23]; three weeks after application) was 2 (Herbicidal rate of 20% or more and less than 40%) and the “herbicidal effect on wild oat (I)” value ([24]; three weeks after application) was 0 (Herbicidal rate of 5% or less (almost no effect)). The “G: green foxtail, herbicidal effect grade” value [25, 26] was 0 (Herbicidal rate of 5% or less (almost no effect)).

— patent US20230085307A1, “PYRIDAZINONE COMPOUND AND HERBICIDE” (NISSAN CHEMICAL CORPORATION, priority 2019, published 2023)
